Measured values: US20200131144A1, “AMINE OR (THIO)AMIDE CONTAINING LXR MODULATORS” (Phenex-FXR GmbH, priority 2017, published 2020)

How the values were obtained:
[1] = target: T1, GST-LXRβ ligand-binding domain (Homo sapiens, UniProt P55055, INS174Q); test: TR-FRETβ activity assay (NCoA3 coactivator peptide recruitment); type: biochemical; details: 1 μM 24(S)-25-epoxycholesterol as prestimulating agonist; inverse agonist unless *
T1 construct: amino acids 156-461; NP009052; made in house; host or cells: E. coli
T1 sequence (P55055 with tags, fused parts or gaps INS174Q limits assumed): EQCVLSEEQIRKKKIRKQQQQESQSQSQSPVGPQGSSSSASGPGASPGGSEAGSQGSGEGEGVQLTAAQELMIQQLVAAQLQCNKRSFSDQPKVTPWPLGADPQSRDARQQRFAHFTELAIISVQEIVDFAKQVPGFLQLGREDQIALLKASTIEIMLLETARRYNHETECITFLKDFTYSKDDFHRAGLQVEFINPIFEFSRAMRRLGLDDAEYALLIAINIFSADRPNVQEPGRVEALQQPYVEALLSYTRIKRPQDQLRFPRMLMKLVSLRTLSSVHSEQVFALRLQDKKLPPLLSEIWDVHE
Procedure, shortened: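 Coactivator recruitment read as TR-FRET (ex 340, em 615 and 665 nm) after 1 h equilibration at 4° C, in triplicate. Mix held 76 nM GST-tagged LXRβ LBD (aa 156-461, E. coli), 400 nM biotin-NCoA3 peptide, Tb-cryptate anti-GST, streptavidin-XL665, 240 mM KCl buffer.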

[2] = target: T2, LXRα full length (FL) (Homo sapiens, UniProt Q13133); test: LXR Gal4 reporter transient transfection assay, mammalian two-hybrid, FL-M2H Gal4α; type: cell-based; details: HEK293 cells; inverse agonist unless *
T2 construct: the full length (FL) proteins of LXRα (amino acids 1-447); NP005684; expressed in transfected cells; host or cells: HEK293
T2 sequence (Q13133 1-447): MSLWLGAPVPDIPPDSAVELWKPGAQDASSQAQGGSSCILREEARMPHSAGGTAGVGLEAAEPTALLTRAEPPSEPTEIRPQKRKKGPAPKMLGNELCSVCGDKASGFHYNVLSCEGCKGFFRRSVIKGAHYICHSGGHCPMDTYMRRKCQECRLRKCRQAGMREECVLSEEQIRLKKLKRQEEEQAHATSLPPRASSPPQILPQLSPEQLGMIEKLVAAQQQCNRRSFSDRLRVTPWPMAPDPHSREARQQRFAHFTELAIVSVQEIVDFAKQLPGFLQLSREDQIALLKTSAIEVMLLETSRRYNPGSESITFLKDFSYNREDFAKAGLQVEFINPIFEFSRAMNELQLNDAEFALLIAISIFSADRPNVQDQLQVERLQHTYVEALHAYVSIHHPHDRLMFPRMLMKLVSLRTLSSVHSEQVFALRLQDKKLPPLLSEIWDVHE
Procedure, shortened: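 Mammalian two-hybrid read-out: interaction of LXRα or LXRβ (full length or ligand-binding domain, NFkB activation-domain fusions) with GAL4-fused SRC1 or NCoR domains drives GAL4-responsive firefly luciferase in HEK293 cells, normalised by Renilla cotransfection. Compounds given 4 h after transfection, ≤0.2% vehicle, cells lysed after 16 h.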

EC50 [1] [µM]	EC50 [2] [µM]	Compound
0.1 to 1	< 0.1	COc1cc(-c2cccc(C(C)(C)C(=O)O)c2)ccc1CN(Cc1ccc(C(F)(F)F)o1)C(=O)c1c(C)ccc2ccccc12 [27/66]
0.1 to 1	< 0.1	Cc1ccc2ccccc2c1C(=O)N(Cc1ccc(-c2cc(F)cc(C3(C(=O)O)CC3)c2)cc1)Cc1ccc(C(F)(F)F)o1 [27/76]
< 0.1	< 0.1	Cc1ccc2ccccc2c1C(=O)N(Cc1ccc(C(F)(F)F)o1)Cc1ncc(-c2cccc(C(C)(C)C(=O)O)c2)cc1Cl [27/78]
0.1 to 1	< 0.1	Cc1nc2ccccc2c(C(=O)N(Cc2ccc(-c3cccc(C(C)(C)C(=O)O)c3)cc2)Cc2ccc(C(F)(F)F)o2)c1C [27/79]
0.1 to 1	< 0.1	COc1c(C)nc2ccccc2c1C(=O)N(Cc1ccc(-c2cccc(C(C)(C)C(=O)O)c2)cc1)Cc1ccc(C(F)(F)F)o1 [27/81]
0.1 to 1	< 0.1	Cc1nc2cccnc2c(C(=O)N(Cc2ccc(-c3cccc(C(C)(C)C(=O)O)c3)cc2)Cc2ccc(C(F)(F)F)o2)c1C [27/93]
1 to 10	–	Cc1ccc2ccccc2c1C(=O)N(Cc1ccc(-c2cccc(S(=O)(=O)CC(=O)O)c2)cc1)Cc1ccc(C(F)(F)F)o1 [Example 9]
< 0.1	< 0.1	Cc1ccc2ccccc2c1CN(Cc1ccc(-c2cccc(C(C)(C)C(=O)O)c2)cc1)Cc1ccc(C(F)(F)F)o1 [Example 24, 2-Methyl-2-(4′-((((2-methylnaphthalen-1-yl)methyl)((5-(trifluoromethyl)furan-2-yl)methyl)amino)methyl)-[1,1′-biphenyl]-3-yl)propanoic acid]

More lines, now with the values behind:

Compound	EC50 [1] [µM]	EC50 [2] [µM]
Cc1cc(C)c(C(=O)N(Cc2ccc(-c3cccc(C(C)(C)C(=O)O)c3)cc2)Cc2ccc(C(F)(F)F)o2)c(C)c1 [10/1]	0.1 to 1	< 0.1
Cc1ccc2ccccc2c1C(=O)N(Cc1ccc(-c2cccc([C@@H](C)C(=O)O)c2)cc1)Cc1ccc(C(F)(F)F)o1 [10/5]	< 0.1	< 0.1
Cc1ccc2ccccc2c1C(=O)N(Cc1ccc(-c2cc(F)c(CO)c(S(=O)(=O)CC(=O)O)c2)cc1)Cc1ccc(C(F)(F)F)o1 [22/8]	1 to 10	–
Cc1ccc2ccccc2c1C(=O)N(Cc1ccc(C(F)(F)F)o1)Cc1ccc(-c2cccc(C(C)(C)C(=O)O)c2)cc1C#N [27/7]	< 0.1	< 0.1
Cc1ccc2ccccc2c1C(=O)N(Cc1ccc(-c2cccc(C(C)(O)C(=O)O)c2)cc1)Cc1ccc(C(F)(F)F)o1 (stereo not shown) [27/10]	0.1 to 1	< 0.1
COc1ccc2c(c1CN(Cc1ccc(-c3cccc(C(C)(C)C(=O)O)c3)cc1)Cc1ccc(C(F)(F)F)o1)CCCC2 [27/17]	0.1 to 1	< 0.1
Cc1ccc2ccccc2c1C(=O)N(Cc1ccc(-c2cccc(C(C)(C)C(=O)O)c2)cc1)Cc1ccc(C(F)(F)F)o1 [27/26]	< 0.1	< 0.1
CCOC(=O)c1ccc(CN(Cc2ccc(-c3cccc(C(C)(C)C(=O)O)c3)cc2)C(=O)c2c(C)ccc3ccccc23)o1 [27/28]	< 0.1	< 0.1
Cc1ccc2ccccc2c1C(=O)N(Cc1ccc(-c2cccc(C(C)(C)C(=O)O)c2)cc1)Cc1ccc(C(F)F)o1 [27/36]	0.1 to 1	< 0.1
Cc1ccc2ccccc2c1C(=O)N(Cc1ccc(-c2cccc(C(C)(C)C(=O)O)c2)cc1)Cc1ccc(C#N)o1 [27/38]	< 0.1	0.1 to 1
CCc1nc2ccccc2c(C(=O)N(Cc2ccc(-c3cccc(C(C)(C)C(=O)O)c3)cc2)Cc2ccc(C(F)(F)F)o2)c1C [27/43]	1 to 10	< 0.1
COc1ccc2c(c1C(=O)N(Cc1ccc(-c3cccc(C(C)(C)C(=O)O)c3)cc1)Cc1ccc(C(F)(F)F)o1)CCCC2 [27/45]	< 0.1	< 0.1
CC(C)(C(=O)O)c1cccc(-c2ccc(CN(Cc3ccc(C(F)(F)F)o3)C(=O)c3c4ccccc4cc4ccccc34)cc2)c1 [27/47]	< 0.1	< 0.1
